Assay results as given in article PMC6081452, “Downstream Products are Potent Inhibitors of the Heparan Sulfate 2-O-Sulfotransferase” (Scientific Reports, 2018).
Entries after “also recorded” stand apart in the source; their conditions may differ.

Tests used:
[1] = biological target: T1, glyc-HS2ST (glycosylated human HS2ST), WT (Homo sapiens, UniProt Q7LGA3); assay: BLI equilibrium binding, glyc-HS2ST WT; conditions: BLI saturation binding curves, biotin-PEG4-linked hexasaccharide immobilised on sensor, n = 3, ± standard error of fit, 25 °C, PBS pH 7.8
T1 construct: the human HS2ST catalytic domain region comprising of 328 amino acid residues; His8 (N, cleaved yes); AviTag (N, cleaved yes); superfolder GFP (N, cleaved yes); made in house; host or cells: HEK293-F (transient transfection, secreted)
T1 sequence (Q7LGA3 29-356 limits assumed): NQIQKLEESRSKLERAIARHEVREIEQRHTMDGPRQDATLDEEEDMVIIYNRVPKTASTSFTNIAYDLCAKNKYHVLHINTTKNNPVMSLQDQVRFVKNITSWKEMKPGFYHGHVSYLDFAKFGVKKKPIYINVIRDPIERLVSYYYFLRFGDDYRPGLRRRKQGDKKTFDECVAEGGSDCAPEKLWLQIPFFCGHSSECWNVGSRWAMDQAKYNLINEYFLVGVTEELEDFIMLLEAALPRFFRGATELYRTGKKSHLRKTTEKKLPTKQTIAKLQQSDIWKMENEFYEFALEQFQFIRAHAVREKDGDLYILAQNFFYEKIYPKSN
Excerpt: HS-protein binding studies often utilize biologically-derived oligosaccharides of heterogeneous length and sulfation[34],[35]; however, the synthesis of oligosaccharides with defined length and specific sulfation patterns has recently become possible. We employed biolayer interferometry (BLI) to determine equilibrium surface binding constants (KD) for HS2ST with synthetic HS hexasaccharides (Fig. 1 and Supplementary Table 1). The HS compounds were attached to the BLI biosensor surface to conserve sample and to ensure a significant signal upon protein binding. The HS compounds contained a biotinylated PEG4 linker at the reducing terminus, enhancing the likelihood of a consistent presentation of the linear glycan on the sensor surface, in contrast to immobilizations via intra-chain modifications. […]
An expression construct was generated encoding the truncated catalytic domain of human HS2ST as an NH2-terminal fusion protein in the pGEn2 expression vector essentially as described in prior studies. […] The recombinant human HS2ST was expressed as a soluble secreted protein by transient transfection of suspension culture HEK293-F cells (FreeStyle^TM 293-Fcells, Thermo Fisher Scientific, Waltham MA) maintained at 0.5–3.0 × 10^6 cells/ml in a humidified CO2 platform shaker incubator at 37 °C with 55% humidity. […]

[2] = biological target: T2, non-glyc-HS2ST (non-glycosylated chicken HS2ST), WT (Gallus gallus, UniProt Q76KB1); assay: BLI equilibrium binding, non-glyc-HS2ST WT; conditions: BLI saturation binding curves, biotin-PEG4-linked hexasaccharide on sensor, n = 3, ± standard error of fit; — = response too weak to fit
T2 construct: made in house; host or cells: E. coli Origami B (DE3)
T2 sequence (Q76KB1 69-356 limits assumed): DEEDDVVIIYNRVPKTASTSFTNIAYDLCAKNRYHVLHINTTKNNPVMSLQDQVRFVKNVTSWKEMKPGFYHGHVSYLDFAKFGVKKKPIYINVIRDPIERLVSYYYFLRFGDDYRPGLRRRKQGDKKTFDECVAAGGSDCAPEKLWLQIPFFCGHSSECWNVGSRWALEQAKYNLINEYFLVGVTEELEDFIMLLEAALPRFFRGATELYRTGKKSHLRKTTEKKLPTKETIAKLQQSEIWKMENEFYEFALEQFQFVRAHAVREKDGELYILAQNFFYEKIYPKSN
Excerpt: HS-protein binding studies often utilize biologically-derived oligosaccharides of heterogeneous length and sulfation[34],[35]; however, the synthesis of oligosaccharides with defined length and specific sulfation patterns has recently become possible. We employed biolayer interferometry (BLI) to determine equilibrium surface binding constants (KD) for HS2ST with synthetic HS hexasaccharides (Fig. 1 and Supplementary Table 1). The HS compounds were attached to the BLI biosensor surface to conserve sample and to ensure a significant signal upon protein binding. The HS compounds contained a biotinylated PEG4 linker at the reducing terminus, enhancing the likelihood of a consistent presentation of the linear glycan on the sensor surface, in contrast to immobilizations via intra-chain modifications.
Binding constants were collected for two isoforms of the enzyme; a glycosylated human variant (glyc-HS2ST) expressed in mammalian cell lines, and a highly homologous (96% identity) non-glycosylated chicken isoform expressed in E. coli (non-glyc-HS2ST). […] Thus, the enhanced ligand affinity seen in HS2ST was unexpected and may relate to the specific position of the glycosylation site (N108)[41].
The chicken HS2ST-Maltose Binding Protein (MBP) fusion protein was expressed and purified according to previous studies. The fusion protein was transformed into E. coli Origami B (DE3) cells, cultured at 37 °C until OD600 reached 0.5, then induced with isopropyl-β-D-thiogalactopyranoside and allowed to grow overnight at 20 °C. Cells were sonicated, followed by a two-step purification procedure. Whole-cell supernatant was passed through an amylose column with Tris buffer (25 mM Tris, 500 mM NaCl, pH 7.5). An elution buffer consisted of Tris Buffer with 40 mM Maltose. The amylose column eluent was concentrated and loaded on a Superdex 200 Increase 10/300 GL with PBS buffer (10 mM sodium phosphate, 150 mM NaCl, pH 7.8) to separate trimeric protein from aggregate and independent MBP (Supplementary Fig. 4). All reported mutations formed homotrimeric complexes according to the SEC profiles, including the negative control (NC = R189A/R80E/R184E). Protein concentration was assessed via UV at 280 nm (MW of trimer ~210 KDa, extinction coefficient ~119,000 M^−1 cm^−1 according to ExPASy ProtParam webtool[56]). The trimeric protein preparation was adjusted to 5% glycerol and stored at −20 °C until use. Additional non-glyc-HS2ST constructs were created with the Q5® Mutagenesis kit (New England Biolabs Inc.; cat. # E0554S) and sequenced at the Georgia Genomics Facility at the University of Georgia.
The Octet® RED96 system (FortéBio Inc.) was employed to detect the affinity of the enzymes for specific HS targets. Due to the small size of the glycan and the deep HS2ST binding cavity, the glycan and protein were treated as ligand and analyte, respectively. Varyingly sulfated HS fragments conjugated to biotin linkers were purchased from Glycan Therapeutics Inc. with purities greater than 93% according to HPLC (sequences located in Supplementary Table 1). The glycans were immobilized onto streptavidin (SA) labeled biosensors (FortéBio; cat. #18–5019) at 0.5 µg/mL. Experiments were performed at 25 °C in PBS Buffer (10 mM sodium phosphate, 150 mM NaCl, pH 7.8) with a final concentration of 1X Pall Kinetics buffer (FortéBio Inc; cat. #18–1092). Fresh biosensors and protein samples were used for each measurement (no regeneration step). […]

Q: With “GlcNS-GlcA-GlcNS-IdoA-GlcNS-GlcA~ [Compound 1]” as the substance, how does the “Equilibrium KD, WT glyc-HS2ST” value [1] read?
A: too weak to measure

Q: And the “Equilibrium KD, WT non-glyc-HS2ST” value [2]?
A: too weak to measure; also recorded: insufficient for KD determination
